Experimental data: ChEMBL document CHEMBL4396891, “Recent update on anti-dengue drug discovery” (Eur J Med Chem, 2019)
Values after ≈ are worked out from the molar mass of the structure shown.

Assays:
Dengue virus = assay: Antiviral activity against dengue virus; assay type: functional, organism-based
dengue virus type 2 [1] = assay: Antiviral activity against DENV2 Martinique infected in African green monkey Vero E6 cells after 3 to 4 days by RT-PCR analysis; assay type: functional, organism-based; conditions: Vero C1008
Nonstructural protein 5 [2] = target: T1, Nonstructural protein 5 (Dengue virus, UniProt V5TFZ2); assay: Inhibition of N-terminal His6-tagged DENV3 NS5 RNA dependent RNA polymerase (272 to 900 residues) after 1 hr by fluorescence assay; set-up: species or system dengue virus type 3
dengue virus type 4 [3] = assay: Antiviral activity against DENV4 Dakar infected in African green monkey Vero E6 cells after 3 to 4 days by RT-PCR analysis; assay type: functional, organism-based; conditions: Vero C1008
dengue virus type 3 [4] = assay: Antiviral activity against DENV3 Bolivia infected in African green monkey Vero E6 cells after 3 to 4 days by RT-PCR analysis; assay type: functional, organism-based; conditions: Vero C1008
dengue virus type 1 [5] = assay: Antiviral activity against DENV1 Djibouti infected in African green monkey Vero E6 cells after 3 to 4 days by RT-PCR analysis; assay type: functional, organism-based; conditions: Vero C1008
dengue virus type 1 [6] = assay: Antiviral activity against DENV1 FGA/89 infected in human Huh7.5 cells after 72 hrs; assay type: functional, organism-based; conditions: FGA/89, Huh7.5, 72 h
dengue virus type 2 [7] = assay: Antiviral activity against DENV2 ICC-265 infected in human Huh7.5 cells after 72 hrs; assay type: functional, organism-based; conditions: ICC-265, Huh7.5, 72 h
dengue virus type 3 [8] = assay: Antiviral activity against DENV3 97 infected in human Huh7.5 cells after 72 hrs; assay type: functional, organism-based; conditions: Dengue virus, 97, Huh7.5, 72 h
dengue virus type 4 [9] = assay: Antiviral activity against DENV4 TVP360 infected in human Huh7.5 cells after 72 hrs; assay type: functional, organism-based; conditions: TVP360, Huh7.5, 72 h
dengue virus type 2 [10] = assay: Antiviral activity against DENV2 infected in BHK cells assessed as reduction in viral yield after 24 ro 48 hrs by luciferase reporter gene assay; assay type: functional, organism-based
dengue virus type 2 [11] = assay: Antiviral activity against DENV2; assay type: functional, organism-based
[12] = target: Genome polyprotein (dengue virus type 2) (UniProt P29990); assay: Inhibition of DENV2 NS2B-NS3 serine protease
Genome polyprotein = Genome polyprotein (dengue virus type 2, UniProt P29990); assay: Inhibition of His-tagged DENV2 NS2B-NS3 serine protease expressed in Escherichia coli BL21 using Boc-Gly-Arg-Arg-7-amino-4-methylcoumarin as substrate measured after 10 mins by fluorometric assay
dengue virus type 1 [13] = assay: Antiviral activity against DENV1 infected in African green monkey Vero cells assessed as reduction in viral replication after 4 days by qRT-PCR analysis; assay type: functional, organism-based; conditions: 96 h
dengue virus type 2 [14] = assay: Antiviral activity against DENV2 New Guinea C infected in human Huh7 cells assessed as reduction in viral titer after 3 to 4 days by MTT assay; assay type: functional, organism-based; conditions: Huh-7
dengue virus type 2 [15] = assay: Antiviral activity against DENV2 infected in BHK-21 cells after 72 hrs by plaque-forming assay; assay type: functional, organism-based; conditions: BHK-21, 72 h
dengue virus type 2 [16] = assay: Antiviral activity against DENV2 infected in human Huh-7 cells; assay type: functional, organism-based
dengue virus type 2 [17] = assay: Antiviral activity against DENV2 infected in human Huh7 cells by qRT-PCR analysis; assay type: functional, organism-based; conditions: Huh-7
dengue virus type 2 [18] = assay: Antiviral activity against DENV2 New Guinea C infected in HEK293 cells assessed as reduction in viral infection after 48 hrs by focus forming assay; assay type: functional, organism-based; conditions: HEK293, 48 h
dengue virus type 1 [19] = assay: Antiviral activity against DENV1 infected in African green monkey Vero cells assessed as reduction in viral replication at 10 uM after 4 days by qRT-PCR analysis relative to control; assay type: functional; conditions: 96 h
dengue virus type 2 [20] = assay: Antiviral activity against DENV2 infected in African green monkey Vero cells assessed as reduction in viral replication at 10 uM after 4 days by qRT-PCR analysis relative to control; assay type: functional; conditions: 96 h
dengue virus type 3 [21] = assay: Antiviral activity against DENV3 infected in African green monkey Vero cells assessed as reduction in viral replication at 10 uM after 4 days by qRT-PCR analysis relative to control; assay type: functional; conditions: 96 h
dengue virus type 4 [22] = assay: Antiviral activity against DENV4 infected in African green monkey Vero cells assessed as reduction in viral replication at 10 uM after 4 days by qRT-PCR analysis relative to control; assay type: functional; conditions: 96 h
Nonstructural protein 5 [23] = target: T1, Nonstructural protein 5; assay: Inhibition of His-tagged DENV2 NS5 RNA dependent RNA polymerase expressed in baculovirus infected sf9 cells; set-up: species or system dengue virus type 2
Nonstructural protein 5 [24] = target: T1, Nonstructural protein 5; assay: Inhibition of His-tagged DENV2 NS5 RNA dependent RNA polymerase; set-up: species or system dengue virus type 2
Nonstructural protein 5 [25] = target: T1, Nonstructural protein 5; assay: Inhibition of dengue virus NS5 RNA dependent RNA polymerase
dengue virus type 2 [26] = assay: Antiviral activity against DENV2 infected in BHK-21 cells assessed as viral titer by plaque assay; assay type: functional, organism-based
dengue virus type 2 [27] = assay: Antiviral activity against DENV2 infected in BHK-21 cells assessed as viral replication after 24 to 48 hrs by luciferase reporter gene assay; assay type: functional, organism-based

## O=C1N[C@@H](Cc2ccccc2)C(=O)N2C[C@H](O)C[C@@H]12
Dengue virus
  EC50: 11.2 to 21.2 µM

## O=C(N[C@@H](Cc1ccc(O)cc1)C(=O)O)c1cc(-c2ccccc2)c(=O)n2c1sc1ccc(OC3CCCCC3)cc12
Dengue virus type 2 [1]
  IC50: 6.8 to 15 µM
Nonstructural protein 5 [2]
  IC50: 1.5 µM
Dengue virus type 4 [3]
  IC50: 6.8 to 15 µM
Dengue virus type 3 [4]
  IC50: 6.8 to 15 µM
Dengue virus type 1 [5]
  IC50: 6.8 to 15 µM

## CCCCCCCCCCCCCCNCCNC(=O)C[C@]1(O)C[C@@H](O)[C@@H](O)[C@H](O)C1
Dengue virus type 1 [6]
  IC50: 6.5 to 10.8 µM
Dengue virus type 2 [7]
  IC50: 6.5 to 10.8 µM
Dengue virus type 3 [8]
  IC50: 6.5 to 10.8 µM
Dengue virus type 4 [9]
  IC50: 6.5 to 10.8 µM

## O[C@@H](c1cc(C(F)(F)F)nc2c(C(F)(F)F)cccc12)[C@H]1CCCCN1 [(S,R)-MEFLOQUINE]
Dengue virus type 2 [10]
  EC50: 3.22 µM

## CCCCC1C(C(=O)N(C)OC)C(c2ccccc2)CCN1C(=O)OC(C)(C)C (stereo not given)
Dengue virus type 2 [11]
  EC50: 2.4 µM
[12]
  INH: 257 µM

## CC(C)=CCC/C(C)=C/C=O [CITRAL]
Dengue virus type 2 [11]
  IC50: 31 µM

## O=C(Nc1cccs1)c1ccccc1Sc1ccc([N+](=O)[O-])cc1
Genome polyprotein
  IC50: 98 µM
Dengue virus type 1 [13]
  EC50: 3.5 µM

## CC[C@H]1C[C@H]2C[N@]3CCc4c([nH]c5ccc(OC)cc45)[C@](C(=O)OC)(C2)[C@H]13
Dengue virus type 2 [11]
  EC50: 2.6 to 10.2 µM

## CCCc1cc(=O)oc2c(C(=O)CC(C)C)c(O)c(CC=C(C)C)c(O)c12
Dengue virus type 2 [11]
  EC50: 2.6 to 10.2 µM

## O[C@H]1[C@H]2c3cc4c(cc3CN3CCC(=C[C@@H]1O)[C@H]23)OCO4 [LYCORINE]
Dengue virus
  EC50: 0.4 to 1.8 µM

## Cc1c(O)cccc1C(=O)N[C@@H](CSc1ccccc1)[C@H](O)CN1C[C@H]2CCCC[C@H]2C[C@H]1C(=O)NC(C)(C)C [NELFINAVIR]
Dengue virus type 2 [11]
  IC50: 3.5 µM

## COc1cc(/C(C#N)=C/c2cc3ccccc3[nH]2)cc(OC)c1OC
Dengue virus type 2 [14]
  EC50: 8.12 µM

## CCCCCCCCCCCCCCCC[N+](CC)(CO)CO
Dengue virus type 2 [15]
  EC50: 1.03 µM

## CC(C)C[C@@H]1NC(=O)[C@@H]2CCCN2C1=O
Dengue virus
  EC50: 11.2 to 21.2 µM

## O=c1c2cc(O)c(O)cc2oc2cc(O)c([C@@H]3O[C@H](CO)[C@@H](O)[C@H](O)[C@H]3O/C=C/c3ccc(O)c(O)c3)c(O)c12
Dengue virus type 2 [16]
  EC50: 4.1 µg/mL (≈ 7.37 µM)

## OCc1cc(C(O)CNCCCCCCOCCCCc2ccccc2)ccc1O (stereo not given) [SALMETEROL]
Dengue virus type 2 [17]
  IC50: 0.67 µM

## O=C(O)c1cc2sc(NC(=O)c3ccccc3Sc3ccc(C(F)(F)F)cc3)nc2cc1O
Genome polyprotein
  IC50: 66 µM

## CC[C@@H](c1cc(OC)c(OC)cc1OC)[C@H](C)[C@@H](/C(C)=C/c1cc(OC)c(OC)cc1OC)c1cc(OC)c(OC)cc1OC
Dengue virus
  EC50: 3.9 µM

## Nc1c(C(=O)Nc2nc(-c3ccccc3)cs2)sc2nc3c(cc12)CN(c1ccccc1)CC3
Dengue virus type 2 [18]
  IC50: 0.025 µM

## N#C/C(=C\c1ccc(-c2ccc(C(=O)O)cc2)s1)c1nc2cc(Cl)ccc2[nH]1
Dengue virus type 1 [19]
  inhibition at 10 µM: 50 to 82%
Dengue virus type 2 [20]
  inhibition at 10 µM: 50 to 82%
Dengue virus type 3 [21]
  inhibition at 10 µM: 50 to 82%
Dengue virus type 4 [22]
  inhibition at 10 µM: 50 to 82%

## CC(C)CC(=O)c1c(O)c2c(c3c(-c4ccccc4)cc(=O)oc13)OC(C)(C)C=C2 [ISOMAMMEIGIN]
Dengue virus type 2 [11]
  EC50: 2.6 to 10.2 µM

## CCOC(=O)c1cnn(-c2ccccc2)c1N(S(=O)(=O)c1ccc([N+](=O)[O-])cc1)S(=O)(=O)c1ccc([N+](=O)[O-])cc1
Dengue virus type 2 [11]
  EC50: 5.7 µM
Nonstructural protein 5 [23]
  EC50: 0.013 µM
Nonstructural protein 5 [24]
  EC50: 4.9 µM

## C[C@@H]1O[C@@H](Oc2c(-c3ccc(O)c(O)c3)oc3cc(O)cc(O)c3c2=O)[C@H](O)[C@H](O)[C@H]1O [QUERCITRIN]
Nonstructural protein 5 [25]
  IC50: 1.7 to 2.1 µM

## CCN(CC)CCNC(=O)c1c(C)[nH]c(/C=C2\C(=O)Nc3ccc(F)cc32)c1C [SUNITINIB]
Dengue virus type 2 [26]
  EC50: 1.96 µM

## CCN(CC)Cc1cc(Nc2ccnc3cc(Cl)ccc23)ccc1O [AMODIAQUINE]
Dengue virus type 2 [27]
  IC50: 1.08 µM
  IC90: 2.69 µM
